For one data set, the system named is Calu cells. In words: Transfection with pCMV-CAT, CAT-Elisa, Calu cells. Type of data set: cell-based, human. To be noted: relative to DOTAP = 1, pCMV-CAT plasmid. From the text: (§1) The testing of DOTAP or the compounds of the invention comprises transfection of the test cells, protein determination by means of the BCA method (Pierce) and carrying out a CAT Elisa and these are described here using DOTAP (Boehringer Mannheim) as an example. After ultrasonication the cationic lipid DOTAP forms unilamellar vesicles (liposomes) in aqueous solution which spontaneously form stable complexes with the DNA (pCMV-CAT). These complexes adhere to the cell surface, fuse with the cell membrane and pCMV-CAT is released into the cytoplasm. The transiently expressed CAT is detected in the cell lysate.
CALU 1, human cancer epithelial cell line from the lung, ECACC 93120818 or another suitable test cell line
(§2) The composition of the test medium used for the respective cell line corresponds with that of the respective culture medium, only the content of FCS is reduced by 50% (only 5% FCS instead of 10%). […]
(§3) The CAT (chloroamphenicol acetyl transferase)-Elisa serves to quantitatively determine the CAT expression in eukaryotic cells after transfection with a plasmid that contains CAT as the reporter gene. […] Anti-CAT-DIG is detected in the third step by a peroxidase-labelled antibody against digoxigenin (Anti-DIG-POD) and visualized in a subsequent substrate reaction. […]
(§4) The microtitre plate is measured at 405 nm and a reference wavelength of 492 nm with an Elisa reader.

For the next data set, the system named is HeLa cells. In words: Transfection with pCMV-CAT, CAT-Elisa, HeLa cells. Type of data set: cell-based, human. To be noted: relative to DOTAP = 1, pCMV-CAT plasmid.
Description: as §1
HeLa, human cancer epithelial cell line from the cervix, ATCC CCL 2
as §2, §3, §4

As a reminder, the melting point is the temperature, or range, at which the solid turns liquid. Molecule `CCCCCCCCCCCC(=O)OCCN(CCCNCCCN)CCOC(=O)CCCCCCCCCCC.Cl` returned a melting point of 245 to 246 °C.
Consider `CCCCCCCCCCCCCC(=O)OCCN(CCOC(=O)CCCCCCCCCCCCC)CC1CCN(CCCN(C)C)CC1` [Example 34, Tetradecanoic acid-2-{(2-tetradecanoyloxy-ethyl)-[1-(3-dimethylamino-propyl)-piperidin-4-yl-methyl]-amino}-ethyl ester], for which the “relative transfection efficiency in a CAT-Assay (DOTAP = 1)” value with Calu cells came to 3.9; in the data set with HeLa cells, 3.2.
As to `CCCCCCCCCCCCCC(=O)OCCN(CCCCNCCCN)CCOC(=O)CCCCCCCCCCCCC` [Example 60, Tetradecanoic acid-2-{[4-(3-amino-propylamino)-butyl]-(2-tetradecanoyloxy-ethyl)-amino}-ethyl ester], the “relative transfection efficiency in a CAT-Assay (DOTAP = 1)” value in the data set with Calu cells is on record as 3.4; in the data set on HeLa cells it was 3.2.

The record behind these values is US7097854B2, “Amino alcohol derivatives, process for their production and pharmaceutical preparations and reagents containing these compounds” (MediGene Oncology GmbH, priority 1996, dated 2006).
